Assay results: patent US4551547A, “Biocidal 2-aryl-1, 3-cyclopentanedione enol ester compounds” (Union Carbide Corporation, priority 1983, dated 1985)

How the values were obtained:
[1] = system: two-spotted mite (adults and nymphal stages); assay: Mite Foliage Spray Test (adults and nymphs); format: in vivo, Tetranychus urticae (Koch); set-up: key to Miticidal, Adult: A: Excellent Control; B: Partial Control; No Control; conditions: Table II; mortality count after four days
Procedure: Suspensions of the test compounds were prepared by dissolving one gram of compound in 50 milliliters of acetone in which had been dissolved 0.1 gram (10 percent of the weight of compound) of an alkylphenoxyethanol sufactant, as an emulsifying or dispersing agent. The resulting solution was mixed into 160 milliliters of water to give roughly 200 milliliters of a suspension containing the compound in finely divided form. The thus prepared stock suspension contained 0.5 percent by weight of compound. The test concentrations employed in the tests described below were obtained by diluting the stock suspension with water. The test procedures were as follows: Adults and nymphal stages of the two-spotted mite (Tetranychus urticae (Koch)), reared on Tender-green beam plants at 80±5° F. and 50±5 percent relative humidity, were the tests organisms. Infested leaves from a stock culture were placed of the primary leaves of two bean plants six to eight inches in height, growing in a two-and-a-half inch clay pot. 150-200 Mites, a sufficient number for testing, transferred from the excised leaves to the fresh plants in a period of twenty-four hours. Following the twenty-four hour transfer period, the excised leaves were removed from the infested plants. The test compounds were formulated by diluting the stock suspension with water to provide suspensions containing the desired amount of test compound per million parts of final formulation. The potted plants (one pot per compound) were placed on a revolving turntable and sprayed with 100-110 milliliters of tests compound formulation by use of a DeVilbis spray gun set at 40 psi, air pressure. This application, which lasted 30 seconds, was sufficient to wet the plants to run-off. As a control, 100-110 milliliters of a water solution containing acetone and emulsifier in the same concentrations as the test compound formulation, but containing no test compound, were also sprayed on infested plants. The sprayed plants were held at 80±5° F. and 50±5 percent relative humidity for four days, after which, a mortality count of motile forms was made on the leaves of the test plants. Any individual which was capable of locomotion upon prodding was considered living. In these tests the pesticidal activity of the compounds against mites and mite eggs was rated as follows: Tests were conducted in accordance with the procedures given at pages 17 to 21 supra. The results are expressed in the same manner as used in Table II, except with respect to miticidal activity. For mite adult and mite egg comparison purposes, results are given in parts per million (ppm) required for a 50 percent kill of mites or eggs, respectively.

[2] = system: Soybean; assay: Post-emergent herbicidal test, soybean; format: in vivo; set-up: key: 1: no perceptible injury; 2: intermediate degrees of injury; 3: intermediate degrees of injury; 4: intermediate degrees of injury; 5: the plant was dead; conditions: Table II; 2500 parts per million, after ten days
Procedure: (§1) Suspensions of the test compounds were prepared by dissolving one gram of compound in 50 milliliters of acetone in which had been dissolved 0.1 gram (10 percent of the weight of compound) of an alkylphenoxyethanol sufactant, as an emulsifying or dispersing agent. The resulting solution was mixed into 160 milliliters of water to give roughly 200 milliliters of a suspension containing the compound in finely divided form. The thus prepared stock suspension contained 0.5 percent by weight of compound. The test concentrations employed in the tests described below were obtained by diluting the stock suspension with water. The test procedures were as follows:
(§2) Experiments were also conducted to determine the phytotoxicity of representative compositions with respect to healthy fresh plants. Solutions of the compounds were prepared as described above to provide a concentration of 2500 parts per million of the test compound. The test plants were sprayed in accordance with the procedure described above for the Mite Foliage Spray Test so as to deliver approximately 100 milliliters of test solutions to the leaves of each plant tested. The sprayed plants and controls were set aside for approximately one hour to allow the solutions to dry and were then placed in the greenhouse. After ten days the plants were visually inspected to determine the extent of foliage injury. A rating of 1 indicates no perceptible injury; 5 indicates the plant was dead and ratings of 2, 3 and 4 indicate intermediate degrees of injury based upon the number and extent to which leaves were injured.

[3] = system: Cotton; assay: Post-emergent herbicidal test, cotton; format: in vivo; set-up: key: 1: no perceptible injury; 2: intermediate degrees of injury; 3: intermediate degrees of injury; 4: intermediate degrees of injury; 5: the plant was dead; conditions: Table II; 2500 parts per million, after ten days
Procedure: as §1, §2

[4] = system: Perennial rye grass; assay: Preliminary herbicide seed germination test (pre-emergent), perennial rye grass; format: in vivo, Solium perenne; set-up: key: 5: no seedling emerged; 4: few seedlings emerged and/or very severe stunting; 3: moderate reduction in stand and/or moderate stunting.; 2: very slight reduction in stand and/or slight stunting; 1: no injury, seedlings appear no different with respect to stand or growth than untreated controls; conditions: Table II; ten to twelve days after application
Procedure: as §1
The following seeds were used in this test:
Perennial rye grass--Solium perenne
Two […] mixtures were prepared as follows:
Each of the above mixtures was rolled separately in 5 gallon containers for approximately one-half hour on ball mill to insure uniform mixing of seeds and soil. For each compound four 3-inch pots were filled with soil to within 11/2 inches of top of pots. To two of these pots were added 70 cc. of Mixture I. To the remaining 2 pots were added 70 cc. of Mixture II. The seed-soil mixture was tamped firmly, and the pots were removed to the greenhouse and watered lightly. About 2 hours after planting, 25 milliliters of the test formulation were added to one pot containing Mixture I and one pot containing Mixture II. An equal volume of a water solution containing acetone and an emulsifier in the same concentration as the herbicidal mixture but without the candidate herbicide was also added to each of the soil-seed mixtures. These pots are used as check or control units. The test compounds were formulated by diluting the stock suspension with water to obtain the desired concentration of the compound in parts per million of the final formulation. Each compound was tested at the same concentration. […] Ratings were made according to the following designations: […]

[5] = system: Tomato; assay: Post-emergent herbicidal test, tomato; format: in vivo; set-up: key: 1: no perceptible injury; 2: intermediate degrees of injury; 3: intermediate degrees of injury; 4: intermediate degrees of injury; 5: the plant was dead; conditions: Table II; 2500 parts per million, after ten days
Procedure: as §1, §2

Compound: CCCCC(CC)C(=O)OC1=C(c2cc(C)ccc2C)C(=O)CC1 (stereo not shown) [Compound 13]
- Miticidal, Adult [1]: A
- Post-emergent Herbicidal, Soybean [2]: 3
- Post-emergent Herbicidal, Cotton [3]: 3
- Pre-emergent Herbicidal, Rye [4]: 1
- Post-emergent Herbicidal, Tomato [5]: 2

Compound: CCCCCCCCCCCCCCCC(=O)OC1=C(c2cc(C)ccc2C)C(=O)CC1 [Compound 14]
- Miticidal, Adult [1]: A
- Post-emergent Herbicidal, Soybean [2]: 3
- Post-emergent Herbicidal, Cotton [3]: 3
- Pre-emergent Herbicidal, Rye [4]: 4
- Post-emergent Herbicidal, Tomato [5]: 3

Compound: CC(=O)OC1=C(c2cc(C)ccc2C)C(=O)C(C)C1 (stereo not shown) [Compound 15]
- Miticidal, Adult [1]: A
- Post-emergent Herbicidal, Soybean [2]: 2
- Post-emergent Herbicidal, Cotton [3]: 2
- Pre-emergent Herbicidal, Rye [4]: 4
- Post-emergent Herbicidal, Tomato [5]: 2

Compound: Cc1ccc(C)c(C2=C(OC(=O)C(C)C)CC(C)C2=O)c1 (stereo not shown) [Compound 16]
- Miticidal, Adult [1]: B
- Post-emergent Herbicidal, Soybean [2]: 2
- Post-emergent Herbicidal, Cotton [3]: 3
- Pre-emergent Herbicidal, Rye [4]: 3
- Post-emergent Herbicidal, Tomato [5]: 2

Compound: CCCCC(CC)C(=O)OC1=C(c2cc(C)ccc2C)C(=O)C(C)C1 (stereo not shown) [Compound 17]
- Miticidal, Adult [1]: A
- Post-emergent Herbicidal, Soybean [2]: 3
- Post-emergent Herbicidal, Cotton [3]: 3
- Pre-emergent Herbicidal, Rye [4]: 3
- Post-emergent Herbicidal, Tomato [5]: 1

Compound: CCCCCCCCCCCCCCCC(=O)OC1=C(c2cc(C)ccc2C)C(=O)C(C)C1 (stereo not shown) [Compound 18]
- Miticidal, Adult [1]: A
- Post-emergent Herbicidal, Soybean [2]: 2
- Post-emergent Herbicidal, Cotton [3]: 2
- Pre-emergent Herbicidal, Rye [4]: 4
- Post-emergent Herbicidal, Tomato [5]: 2

Compound: CC(=O)OC1=C(c2ccccc2C)C(=O)C2CCCCC12 (stereo not shown) [Compound 19, 3-acetoxy-2-(2'-methylphenyl)-4,5,6,7,8,9-hexahydro-2-indenone]
- Miticidal, Adult [1]: A
- Post-emergent Herbicidal, Soybean [2]: 3
- Post-emergent Herbicidal, Cotton [3]: 2
- Pre-emergent Herbicidal, Rye [4]: 3
- Post-emergent Herbicidal, Tomato [5]: 2

Compound: Cc1ccccc1C1=C(OC(=O)C(C)C)C2CCCCC2C1=O (stereo not shown) [Compound 20]
- Miticidal, Adult [1]: A
- Post-emergent Herbicidal, Soybean [2]: 3
- Post-emergent Herbicidal, Cotton [3]: 3
- Pre-emergent Herbicidal, Rye [4]: 4
- Post-emergent Herbicidal, Tomato [5]: 1

Compound: CCCCC(CC)C(=O)OC1=C(c2ccccc2C)C(=O)C2CCCCC12 (stereo not shown) [Compound 21, 3-(2-Ethylhexanoyloxy)-2-(2'-methylphenyl)-4,5,6,7,8,9-hexahydro-2-indenone]
- Miticidal, Adult [1]: A
- Post-emergent Herbicidal, Soybean [2]: 2
- Post-emergent Herbicidal, Cotton [3]: 2
- Pre-emergent Herbicidal, Rye [4]: 3
- Post-emergent Herbicidal, Tomato [5]: 1

Compound: Cc1ccccc1C1=C(OC(=O)C(C)(C)C)C2CCCCC2C1=O (stereo not shown) [Compound 22]
- Miticidal, Adult [1]: A
- Post-emergent Herbicidal, Soybean [2]: 3
- Post-emergent Herbicidal, Cotton [3]: 3
- Pre-emergent Herbicidal, Rye [4]: 5
- Post-emergent Herbicidal, Tomato [5]: 1

Compound: CCCCCCCCCC(=O)OC1=C(c2ccccc2C)C(=O)C2CCCCC12 (stereo not shown) [Compound 23]
- Miticidal, Adult [1]: A
- Post-emergent Herbicidal, Soybean [2]: 3
- Post-emergent Herbicidal, Cotton [3]: 3
- Pre-emergent Herbicidal, Rye [4]: 5
- Post-emergent Herbicidal, Tomato [5]: 1

Compound: CCCCCCCCCCCCCCCC(=O)OC1=C(c2ccccc2C)C(=O)C2CCCCC12 (stereo not shown) [Compound 24]
- Miticidal, Adult [1]: A
- Post-emergent Herbicidal, Soybean [2]: 2
- Post-emergent Herbicidal, Cotton [3]: 2
- Pre-emergent Herbicidal, Rye [4]: 4
- Post-emergent Herbicidal, Tomato [5]: 1

Compound: CC(=O)OC1=C(c2ccc(C)cc2C)C(=O)C2CCCCC12 (stereo not shown) [Compound 25]
- Miticidal, Adult [1]: A
- Post-emergent Herbicidal, Soybean [2]: 2
- Post-emergent Herbicidal, Cotton [3]: 3
- Pre-emergent Herbicidal, Rye [4]: 5
- Post-emergent Herbicidal, Tomato [5]: 2

Compound: CCCCC(CC)C(=O)OC1=C(c2ccc(C)cc2C)C(=O)C2CCCCC12 (stereo not shown) [Compound 26, 3-(2-ethylhexanoyloxy)-2-(2',4'-dimethylphenyl)-4,5,6,7,8,9-hexahydro-2-indenone]
- Miticidal, Adult [1]: A
- Post-emergent Herbicidal, Soybean [2]: 2
- Post-emergent Herbicidal, Cotton [3]: 2
- Pre-emergent Herbicidal, Rye [4]: 5
- Post-emergent Herbicidal, Tomato [5]: 2

Compound: Cc1ccc(C2=C(OC(=O)c3ccccc3)C3CCCCC3C2=O)c(C)c1 (stereo not shown) [Compound 27, 3-benzoyloxy-2-(2',4'-dimethylphenyl)-4,5,6,7,8,9-hexahydro-2-indenone]
- Miticidal, Adult [1]: A
- Post-emergent Herbicidal, Soybean [2]: 2
- Post-emergent Herbicidal, Cotton [3]: 2
- Pre-emergent Herbicidal, Rye [4]: 5
- Post-emergent Herbicidal, Tomato [5]: 2

Compound: CC(=O)OC1=C(c2cc(C)ccc2C)C(=O)C2CCCCC12 (stereo not shown) [Compound 28]
- Miticidal, Adult [1]: A
- Post-emergent Herbicidal, Soybean [2]: 2
- Post-emergent Herbicidal, Cotton [3]: 1
- Pre-emergent Herbicidal, Rye [4]: 3
- Post-emergent Herbicidal, Tomato [5]: 1

Compound: Cc1ccc(C)c(C2=C(OC(=O)C(C)C)C3CCCCC3C2=O)c1 (stereo not shown) [Compound 29]
- Miticidal, Adult [1]: A
- Post-emergent Herbicidal, Soybean [2]: 2
- Post-emergent Herbicidal, Cotton [3]: 2
- Pre-emergent Herbicidal, Rye [4]: 1
- Post-emergent Herbicidal, Tomato [5]: 1
